Experimental data published in EP0326526A1, “Aminoketones of substituted dibenzo- and pyridobenzo-azepinones and pharmaceutical compositions” (ISTITUTO DE ANGELI S.p.A., priority 1988, dated 1989).

Key:
[1] = biological target: T1, M₁ muscarinic receptors (cerebral cortex) (Rattus norvegicus, UniProt P08482); test: Muscarinic M₁ receptor binding: displacement of ³H-pirenzepine from cerebral cortex homogenate; set-up: species or system male CD-COOBBS rats; conditions: competition against 0.5 nM ³H-pirenzepine, 45 min at 30°C, read-out: IN VITRO RECEPTOR BINDING TEST KD M₁ (cortex)
T1 construct: displacement of ³H-pirenzepine from cerebral cortex homogenate; from tissue; host or cells: rat cerebral cortex homogenate
T1 sequence (P08482 1-460): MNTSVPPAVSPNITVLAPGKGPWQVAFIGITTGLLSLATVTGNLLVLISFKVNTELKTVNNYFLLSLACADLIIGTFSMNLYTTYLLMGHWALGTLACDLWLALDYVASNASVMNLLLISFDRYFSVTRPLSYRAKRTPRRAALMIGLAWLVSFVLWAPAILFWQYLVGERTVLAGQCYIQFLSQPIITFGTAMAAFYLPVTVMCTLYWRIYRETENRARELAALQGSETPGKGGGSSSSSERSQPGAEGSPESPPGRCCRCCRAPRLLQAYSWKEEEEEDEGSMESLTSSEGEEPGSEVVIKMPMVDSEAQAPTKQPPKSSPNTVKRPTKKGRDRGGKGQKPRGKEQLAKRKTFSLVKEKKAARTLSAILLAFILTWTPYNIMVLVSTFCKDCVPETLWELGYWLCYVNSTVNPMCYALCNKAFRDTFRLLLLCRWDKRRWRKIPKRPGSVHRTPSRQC
Procedure: (§1) Antimuscarinic activity and selectivity were examined in vitro by receptor binding studies in two tissues endowed with M₁ and M₂ muscarinic receptors (cerebral cortex, heart) and in vivo by studying the acid secretion and pepsin inhibition (M₁ response) in comparison with the cardiac and mydriatic effects (M₂ response) in conscious dogs equipped with cronic gastric fistula.
Muscarinic M₁ activity was determined by studying the displacement of ³H-pirenzepine from cerebral cortex homogenate according to the procedure reported below: The cerebral cortex donors were male CD-COOBBS rats, 220-250 g body weight. The homogenization process was carried out in a Potter-Evelhjem apparatus in the presence of Na⁺/Mg⁺⁺ HEPES buffer; pH 7.4 (100 mM NaCl, 10 mM MgCl₂, 20 mM HEPES); by filtering the suspension through two layers of cheesecloth. Binding curves for the under study compounds were derived indirectly from competition experiments against 0.5 nM ³H-pirenzepine labelling the muscarinic receptors of the cerebral cortex. 1 ml of the homogenate was incubated for 45 min at 30°C in the presence of a marker ligand and dif ferent concentrations of the cold ligand, conditions under which equilibrium was reached as determined by appropriate association experiments. The incubation was termination by centrifugation (12,000 rpm for 3 min) at room temperature using an Eppendorf microcentrifuge. The resultant pellet was washed twice with 1.5 ml saline to remove the free radioactivity and the final pellet was allowed to drain. The tips of the tubes containing the pellet were cut off and 200µl of tissue subilizer (Lumasolve, Lumac) were added and left to stand overnight. Radioactivity was then counted after addition of 4 ml of liquid scintillation mixture (Dimilume/Toluene 1:10 v:v, Packard).
Assays were carried out in triplicate or quadruplicate and the non-specific binding was defined as the radioactivity bound or entrapped in the pellet when the incubation medium contained 1 µM atropine sulphate. Non-specific binding avaraged less then 30%. […]

[2] = biological target: T2, M₂ muscarinic receptors (heart) (Rattus norvegicus, UniProt P10980); test: Muscarinic M₂ receptor binding: displacement of ³H-NMS from total heart homogenate; conditions: read-out: IN VITRO RECEPTOR BINDING TEST KD M₂ (heart)
T2 construct: displacement of ³H-NMS from total heart homogenate; from tissue; rat inferred
T2 sequence (P10980 1-466): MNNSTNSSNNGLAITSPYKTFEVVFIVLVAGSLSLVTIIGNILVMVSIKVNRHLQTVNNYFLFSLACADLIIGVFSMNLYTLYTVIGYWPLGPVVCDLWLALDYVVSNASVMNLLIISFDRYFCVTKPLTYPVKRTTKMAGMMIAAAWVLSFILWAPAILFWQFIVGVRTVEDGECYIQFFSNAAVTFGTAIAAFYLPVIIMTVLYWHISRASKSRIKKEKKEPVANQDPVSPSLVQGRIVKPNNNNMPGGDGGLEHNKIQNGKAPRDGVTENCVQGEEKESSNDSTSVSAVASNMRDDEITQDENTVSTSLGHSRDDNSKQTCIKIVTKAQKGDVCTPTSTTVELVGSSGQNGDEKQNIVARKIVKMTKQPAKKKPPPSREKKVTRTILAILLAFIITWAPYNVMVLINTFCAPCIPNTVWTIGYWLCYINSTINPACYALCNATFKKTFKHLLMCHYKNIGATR

[3] = test system: conscious dogs equipped with cronic gastric fistula; test: Conscious gastric fistula dog in vivo: 2-DG-elicited gastric secretion, heart rate and pupil diameter; set-up: species or system male Beagle dogs; conditions: cumulative i.v. dosing; for Heart rate ED₅₀ (beats/min): dose increasing heart rate by 50 beats per min; for ED₅₀ (agonist 2-DG*) Acid output: dose inhibiting 50% acid output; for ED₅₀ (agonist 2-DG*) Acid output / ED₅₀ (agonist 2-DG*) Pepsin output: secretion elicited by 2-deoxy-D-glucose 100 mg/kg i.v.; for ED₅₀ (agonist 2-DG*) Pepsin output: dose inhibiting 50% pepsin output; for Dose doubling pupil diameter: dose which at least doubled the initial pupil diameter
Procedure: as §1
Studies were performed in 5 male Beagle dogs (15-22 Kg) with well established gastric fistula. Gastric secretion was elicited by 2-deoxy-D-glucose (2-DG) (100 mg/kg, infused intravenously in 10 min), and collected by gravity drainage at 15 min intervals. […] Each sample was measured for volume (to the nearest 0.1 ml) and acidity (titration of 1 ml sample to pH 7 with NaOH 0.1 N by means of an automatic titrator ITT Radiometer PHM 62); the pepsin content in each 15 min sample was determined on 0.1 ml of gastric juice (diluted 1:20 wich HCl 0.1 N), using the hemoglobin digestion method described by Anson (J.Gen. Phys. 22 ([…]) 79) and expressed in mU Anson.
The compounds were injected intravenously in a cumulative fashion, each dose being administered at 15 min intervals, starting after the peak response was reached. At each dose level, heart rate was measured by a cardiotachometer and pupil diameter scored under constant light. Doses inhibiting 50% (ED₅₀ and their 95% confidence limits) acid and pepsin output and maximal inhibition (I max), were obtained by fractional linear transformation of the data: D/I = aD+b, were D = dose of antagonist; I = % inhibition of acid or pepsin output; I max = 1/a; ED₅₀ = b/a. (Hirschowitz B.I. Am. J. Physiol. 216: 487-489 1969) Doses increasing heart rate by 50 beats per min (ED₅₀ and their 95% confidence limits) were evaluated by linear regression analysis of the data relating dose to effect.
Doses of compound which at least doubled the initial pupil diameter were also determined.

SMILES	Kd [1] [nM]	Kd [2] [nM]	Heart rate ED₅₀ (beats/min) [3] [µg/kg i.v.]	ED₅₀ (agonist 2-DG*) Acid output [3] [µg/kg i.v.]	ED₅₀ (agonist 2-DG*) Pepsin output [3] [µg/kg i.v.]	Dose doubling pupil diameter [3] [µg/kg i.v.]
CN1CCC(C(=O)C2c3ccccc3NC(=O)c3ccccc32)CC1 (stereo not drawn) [Compound 1, 6,11-dihydro-11-[(1-methyl-4-piperidinyl)-carbonyl]-5H-dibenz[b,e]-azepin-6-one]	2.1	212	204	6.2	8.0	512
CN1CCC(C(=O)C2c3ccccc3C(=O)Nc3cccc(F)c32)CC1 (stereo not drawn) [Compound 4, 1-fluoro-6,11-dihydro-11-[(1-methyl-4-piperidinyl)-carbonyl]-5H-dibenz[b,e]-azepin-6-one]	2.2	210	191	6.1	5.3	512
CN1CCC(C(=O)C2c3ccccc3C(=O)Nc3ccc(Cl)nc32)CC1 (stereo not drawn) [Compound 12, 2-chloro-6,11-dihydro-11-[(1-methyl-4-piperidinyl)-carbonyl]-5H-pyrido[2,3b]-benzazepin-6-one]	3.15	279	78	7.2	6.3	320
